{
  "source": "patent US20230310432A1",
  "about": "(JULIUS-MAXIMILIANS-UNIVERSITÄT WÜRZBURG, priority 2017, published 2023)",
  "key": {"[1]": {"test_system": "activated CD19 CAR/4-1BB-T cells; Raji tumor cells", "test": "Raji tumor burden by bioluminescence imaging, function ON/OFF/ON (Example 7)", "assay_type": "in vivo, NSG mice", "conditions": "between day 12 and 17; CAR-T cells with prior dasatinib; 97.8% without", "protocol": "The Institutional Animal Care and Use Committee of UKW approved all mouse experiments. NOD.Cg-Prkdc^scidIl2rg^tm1wjl/SzJ (NSG) mice (female, 6-8 week old) were purchased from Charles River (Sulzfeld, Germany). Mice were inoculated with 1×10^6 Raji/ffluc_GFP tumor cells via tail vein injection (i.v.). Mice were treated with 5×10^6 CAR-modified or control untransduced T-cells (CD4:CD8 ratio=1:1) via tail vein injection (i.v.). […] Tumor burden and distribution was analyzed by serial bioluminescence imaging on an IVIS Lumina imager (Perkin Elmer, Baesweiler, Germany): mice received i.p. injections of 0.3 mg/g luciferin and images were acquired 10 minutes after luciferin injection in small binning mode at an acquisition time of 1 s to 1 min to obtain unsaturated images. Data were analyzed using LivingImage Software (Caliper) and the average radiance (or photon flux) analyzed in regions of interest that encompassed the entire body of each individual mouse. Mice were sacrificed at the end of the experiment and human T cells in bone marrow, peripheral blood and spleen were analyzed by flow cytometry. The presence of (human) cytokines in serum was measured using multiplex cytokine analysis. […]\nRaji tumor burden was determined by bioluminescence imaging on day 7, day 10, day 12, day 14, day 17, and subsequently, once a week (FIG. 16B)."}, "CD19 CAR/4-1BB-T cells": {"test_system": "CD19 CAR/4-1BB-T cells", "test": "Serum cytokine levels in NSG/Raji xenograft model (multiplex cytokine analysis)", "assay_type": "in vivo, NSG mice"}},
  "data": [
    {"molecule": "Cc1nc(Nc2ncc(C(=O)Nc3c(C)cccc3Cl)s2)cc(N2CCN(CCO)CC2)n1", "note": "[dasatinib]", "values": [
      {"measurement": "reduction of tumor luminescence", "setting": "[1]", "value": 66, "unit": "%"},
      {"measurement": "serum level of GM-CSF", "setting": "CD19 CAR/4-1BB-T cells; day +1, CAR-T cells and dasatinib (CAR/+)", "value": 6.4, "unit": "pg/mL"},
      {"measurement": "serum level of IFN-γ", "setting": "CD19 CAR/4-1BB-T cells; day +1, CAR/+", "value": 13.4, "unit": "pg/mL"},
      {"measurement": "serum level of IL-5", "setting": "CD19 CAR/4-1BB-T cells; day +1, CAR/+", "value": 21.4, "unit": "pg/mL"},
      {"measurement": "serum level of TNF-α", "setting": "CD19 CAR/4-1BB-T cells; day +1, CAR/+", "value": 0.04, "unit": "pg/mL"},
      {"measurement": "serum level of GM-CSF", "setting": "CD19 CAR/4-1BB-T cells; day +3, dasatinib discontinued", "value": 45.8, "unit": "pg/mL"},
      {"measurement": "serum level of IFN-γ", "setting": "CD19 CAR/4-1BB-T cells; day +3, dasatinib discontinued", "value": 411.8, "unit": "pg/mL"},
      {"measurement": "serum level of IL-2", "setting": "CD19 CAR/4-1BB-T cells; day +3, dasatinib discontinued", "value": 0.2, "unit": "pg/mL"},
      {"measurement": "serum level of IL-5", "setting": "CD19 CAR/4-1BB-T cells; day +3, dasatinib discontinued", "value": 331.2, "unit": "pg/mL"},
      {"measurement": "serum level of IL-6", "setting": "CD19 CAR/4-1BB-T cells; day +3, dasatinib discontinued", "value": 0.9, "unit": "pg/mL"},
      {"measurement": "serum level of TNF-α", "setting": "CD19 CAR/4-1BB-T cells; day +3, dasatinib discontinued", "value": 0.9, "unit": "pg/mL"}
    ]}
  ]
}
